From patent publication US9198896B2 (priority 2006, dated 2015)
Marks after values point to notes of the source that are not given here.

Tests used:
[1] = Biochemical tests of blood/sera of rats after long-term treatment; format: in vivo, rat; settings: 1 week after long-term treatment
EAC cells [2] = experiment: Tumor growth inhibition study; settings: for % of cells present in respect of the control / No. of EAC cells (in million) / Volume of packed cells: day 3 to day 16
[3] = Pharmacokinetics, single oral dose study; settings: for ka (apparent absorption rate constant): 1 to 4 h; for k (elimination rate constant): 4-8 h; for half-life / CL/F / Cmax / Tmax: mouse, whole blood, po
Teratogenicity study = format: in vivo, mice; settings: treatment (oral and intravenous) from conception for 3 weeks
Method: Teratogenicity: For this test, mating was performed between mice as mentioned above in the case of fertility studies. […] But, as soon as they conceived, as indicated by vaginal plug formation, the treatment (oral and intravenous) started and continued for 3 weeks in a similar fashion for chronic toxicity studies. […] These litters also grew up healthy with no signs of abnormality. Healthy litters were born again when mating was performed among these animals.

[4] = rats
Method: Long-term (chronic) toxicity study: Mode of treatment and dilution by either water or normal saline were identical to acute toxicity study. Chronic toxicity study was made with four species of animals: mice, rat, rabbit and dog.
Rats. For experiment with these animals, 4 batches of rats were used per mode of treatment. Each batch contained 5 rats either male or female weighing 75-80 g per animal. […] Then, the rats were injected for 3 cycles; one cycle consisted of injections for two consecutive days followed by a rest of 1 day.
Total number of animals in each group including control and different modes of treatment: 6 (mice), 5 (rats) and 4 (rabbits). Each set of experiment was repeated 4 times for mice and rats and for rabbits 2 times respectively. […] In Table 3, αWeight of animals for mice and rats in gm and for rabbit in Kg.
Details are described in the Tables.

EAC cells [5] = experiment: Increase in body weight of EAC cell-inoculated mice; format: in vivo; settings: Table 10
Method: Increase in body weight: For this experiment, mice were weighed periodically during and after the therapy. The results are expressed as percentage increase in the body weight using the following relationship: percent increase equals
Ehrlich ascites carcinoma bearing mice were treated intraperitonially with different drug combinations in normal saline to observe their effect on body weight (table 10) and life span (table 11). Mice in the control group were similarly treated intraperitonially only with normal saline.
The day on which 10^5 EAC cells were inoculated into each mouse was considered as day 0. The treatment started from day 3. […] 6 animals received a particular mode of treatment. Control group received only normal saline. […] Each set of experiment was repeated 4 times.

[6] = both, rat, in vivo, 6 weeks
Fertility study = settings: oral or intravenous, dose and schedule as chronic toxicity test
[7] = mice, single oral dose 50 mg/kg
[8] = mice, single oral dose 100 mg/kg
[9] = mice, single oral dose 200 mg/kg

## CC(=O)C=O [methylglyoxal]
[1]; Intravenous
  Creatine kinase: 0.36 ± 0.04 units/ml
  Creatine kinase-MB: 0.18 ± 0.01 units/ml
  Hb: 10.2 ± 0.8 gm/dl
  Serum Urea: 26.3 ± 2.1 mg/dL
  Serum alanine transaminase: 28 ± 1.6 units/ml
  Serum alkaline phosphatase: 41.6 ± 1.2 KA units
  Serum aspartate transaminase: 125 ± 5 units/ml
  Serum creatinine: 0.90 ± 0.02 mg/dL
  Serum glucose: 102 ± 10 mg/dL
[1]; Oral
  Creatine kinase: 0.37 ± 0.05 units/ml
  Creatine kinase-MB: 0.16 ± 0.03 units/ml
  Hb: 10.4 ± 0.3 gm/dl
  Serum Urea: 24.3 ± 1.9 mg/dL
  Serum alanine transaminase: 24 ± 2.5 units/ml
  Serum alkaline phosphatase: 39.3 ± 1.6 KA units
  Serum aspartate transaminase: 132 ± 3 units/ml
  Serum creatinine: 0.82 ± 0.03 mg/dL
  Serum glucose: 109 ± 6 mg/dL
[1]; Subcutaneous
  Hb: 10.35 ± 0.35 gm/dl
  Serum Urea: 23.5 ± 1.3 mg/dL
  Serum alanine transaminase: 28 ± 2.8 units/ml
  Serum alkaline phosphatase: 45.3 ± 1.8 KA units
  Serum aspartate transaminase: 141 ± 7 units/ml
  Serum creatinine: 0.85 ± 0.03 mg/dL
  Serum glucose: 122 ± 3 mg/dL
EAC cells [2]; EAC cell-inoculated mice, doses of Table 9
  effect on cell proliferation in the peritoneal cavity: significant inhibitory effect
EAC cells [2]; MG 30 mg/kg/day, Day 10
  % of cells present in respect of the control: 5%
  No. of EAC cells (in million): 15 ± 2 million
EAC cells [2]; MG 30 mg/kg/day, Day 14
  % of cells present in respect of the control: 13%
  No. of EAC cells (in million): 230 ± 10 million
  Volume of packed cells: 0.26 ± 0.02 mL
EAC cells [2]; MG 30 mg/kg/day, Day 18
  % of cells present in respect of the control: 23%
  No. of EAC cells (in million): 820 ± 30 million
  Volume of packed cells: 0.96 ± 0.05 mL
EAC cells [2]; MG 100 mg/kg/day, Day 10
  % of cells present in respect of the control: 0%
EAC cells [2]; MG 100 mg/kg/day, Day 14
  % of cells present in respect of the control: 0%
EAC cells [2]; MG 100 mg/kg/day, Day 18
  % of cells present in respect of the control: 0%
[3]; [7]
  Lag time: ≈55 min
  V (apparent volume of distribution): 23.31 L/kg
  ka (apparent absorption rate constant): 0.277 h⁻¹
  k (elimination rate constant): 0.33 h⁻¹
[3]; [8]
  Lag time: ≈50 min
  V (apparent volume of distribution): 41.84 L/kg
  ka (apparent absorption rate constant): 0.223 h⁻¹
  k (elimination rate constant): 0.198 h⁻¹
[3]; [9]
  Lag time: ≈50 min
  V (apparent volume of distribution): 80.97 L/kg
  ka (apparent absorption rate constant): 0.216 h⁻¹
  k (elimination rate constant): 0.192 h⁻¹
[3]; mice, single oral dose, all the three doses (50, 100, 200 mg/kg)
  lag time: 50 to 55 min
[3]; mice, untreated and orally treated
  concentrations in plasma and whole blood compared: almost identical
[3]
  half-life: 2.1 to 3.6 h
[3]; 50 mg/kg
  CL/F: 128 mL/min/kg
  Cmax: 13.9 µM
  half-life: 2.1 h
[3]; 50 mg/kg, tmax, mice, single oral dose 50 mg/kg
  Tmax: ~4 h
[3]; 100 mg/kg
  CL/F: 138 mL/min/kg
  Cmax: 18.7 µM
  half-life: 3.5 h
[3]; 100 mg/kg, tmax, mice, single oral dose 100 mg/kg
  Tmax: ~4 h
[3]; 200 mg/kg
  CL/F: 259 mL/min/kg
  Cmax: 19.5 ± 3.36 µM
  half-life: 3.6 h
[3]; 200 mg/kg, time of peak blood concentration (tmax), mice, single oral doses of 50, 100 and 200 mg/kg
  Tmax: 4 h
[3]; 200 mg/kg, tmax, mice, single oral dose 200 mg/kg
  Tmax: ~4 h
Teratogenicity study
  outcome of pregnancy (teratogenicity): gave birth to healthy litters
[4]; intravenous, from 3rd week of the treatment
  local reaction to intravenous injections: swelling appeared in the tail and adjoining regions
[4]; multiple dose, observed up to 90 days after treatment
  toxic effect on physical condition and behavioral pattern, death: No toxic effect
EAC cells [5]; MG 30 mg/kg/day ip, Day 15
  Percent increase in body weight: 15.8 ± 1.3%
EAC cells [5]; MG 30 mg/kg/day ip, Day 25
  Percent increase in body weight: 30.0 ± 2.9%
EAC cells [5]; MG 30 mg/kg/day ip, Day 35, 2 animals survived out of 6
  Percent increase in body weight: 38.8 ± 3.0^b %
EAC cells [5]; MG 100 mg/kg body weight/day ip, Day 15
  Percent increase in body weight: 8.0 ± 0.7%
EAC cells [5]; MG 100 mg/kg body weight/day ip, Day 20
  Percent increase in body weight: 10.0 ± 1.2%
EAC cells [5]; MG 100 mg/kg body weight/day ip, Day 25
  Percent increase in body weight: 11.0 ± 1.0%
[6]
  healthy litters per female, on an average: 5
Fertility study
  abnormalities among the litters: Neither deformation of organs nor any other abnormalities
